Measured values taken from patent publication EP4692071A1, “PHOTOCHROMIC COMPOUND, NAPHTHOL DERIVATIVE, CURABLE COMPOSITION, OPTICAL ARTICLE, LENS, AND EYEGLASS” (TOKUYAMA CORPORATION, priority 2023, dated 2024).
Values belong to the molecule of their own block, whether it stands above or below them.

How the values were obtained:
Type in all cases: physicochemical
[1] = Maximum absorption wavelength (λmax) after color development, spectrophotometer MCPD3000; conditions: for Maximum absorption wavelength: after color development
Procedure, shortened: (§1)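 Read-out: absorbance at λmax, multichannel photodetector spectrophotometer. Colour density = ε(240) − ε(0), 240 s light, 23°C. τ1/2 = time for ε(240) − ε(0) to halve after light off. Residual rate compares density before and after 90 h xenon weathering.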

[2] = 23°C color optical density (A23): absorbancy difference ε(240)-ε(0) after 240 s light irradiation at 23°C; conditions: 240 s irradiation; for A23 (-): binder sheet (binder method); for 23°C color optical density (-): photochromic laminate by coating method, comparative compounds
Procedure, shortened: as §1

[3] = 35°C color optical density (A35): absorbancy difference ε(240)-ε(0) after 240 s light irradiation at 35°C; conditions: photochromic laminate by coating method, comparative compounds, 240 s irradiation
Procedure, shortened: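 Color optical density at 35°C (A35) came from light exposure of the sample at 35°C lasting 240 seconds. At the first and second absorption wavelengths, the absorbancy before irradiation, ε(0), was subtracted from the absorbancy measured after irradiation, ε(240). This difference was taken as the measure of color optical density.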

[4] = High-temperature color development rate (A35/A23×100), temperature dependency; conditions: for Temperature change rate (%): photochromic laminate by coating method, comparative compounds, corresponds to A35/A23×100
Procedure, shortened: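 The sample was irradiated with light for 240 seconds at 23°C and separately at 35°C. The gain in absorbance over the unirradiated state, ε(240)−ε(0), gave the color optical densities A23 and A35. A35 divided by A23, multiplied by 100, expressed how well color development holds up at the higher temperature.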

[5] = Residual rate (A90/A0×100) after 90 h accelerated deterioration in xenon weather meter X25, color developing durability; conditions: for Residual rate: after 90 h accelerated deterioration; for Residual rate (%): xenon weather meter 90 hours
Procedure, shortened: as §1

[6] = binder sheet (binder method), absorption peak at 474 nm
[7] = binder sheet (binder method), absorption peak at 566 nm
[8] = photochromic cured product, thickness 1 mm (kneading method), absorption band at 476 nm
[9] = photochromic cured product, thickness 1 mm (kneading method), absorption band at 573 nm
[10] = photochromic laminate prepared by coating method, absorption band at 474 nm
[11] = photochromic laminate prepared by coating method, absorption band at 567 nm
[12] = binder sheet (binder method), at 474 nm absorption maximum
[13] = binder sheet (binder method), at 566 nm absorption maximum
[14] = photochromic laminate by coating method
[15] = photochromic laminate prepared by coating method, absorption band at 449 nm
[16] = photochromic laminate prepared by coating method, absorption band at 569 nm

Maximum absorption wavelength (nm) ([1]; binder sheet (binder method), urethaneurea resin photochromic layer between polycarbonate sheets, 0.25 mmol per 100 parts by mass resin, at 474 nm absorption maximum): 474 nm
Maximum absorption wavelength (nm) ([1]; binder sheet (binder method), urethaneurea resin photochromic layer between polycarbonate sheets, 0.25 mmol per 100 parts by mass resin, at 566 nm absorption maximum): 566 nm
Maximum absorption wavelength [1, 6]: 474 nm
Maximum absorption wavelength [1, 7]: 566 nm
Maximum absorption wavelength (nm) ([1]; photochromic cured product by kneading method, 1 mm thick thiourethane, 0.106 mmol per 100 g monomers, absorption peak at 476 nm): 476 nm
Maximum absorption wavelength (nm) ([1]; photochromic cured product by kneading method, 1 mm thick thiourethane, 0.106 mmol per 100 g monomers, absorption peak at 573 nm): 573 nm
Maximum absorption wavelength [1, 8]: 476 nm
Maximum absorption wavelength [1, 9]: 573 nm
Maximum absorption wavelength (nm) ([1]; photochromic laminate by coating method, 40 µm photochromic layer on thiourethane lens, 0.25 mmol compound per 100 g monomers, absorption band at 474 nm): 474 nm
Maximum absorption wavelength (nm) ([1]; photochromic laminate by coating method, 40 µm photochromic layer on thiourethane lens, 0.25 mmol compound per 100 g monomers, absorption band at 567 nm): 567 nm
Maximum absorption wavelength [1, 10]: 474 nm
Maximum absorption wavelength [1, 11]: 567 nm
A23 (-) ([2]; at 474 nm absorption maximum): 1.69 -
A23 (-) ([2]; at 566 nm absorption maximum): 0.85 -
23°C color optical density (-) ([2]; absorption band at 474 nm): 1.65 -
23°C color optical density (-) ([2]; absorption band at 567 nm): 0.83 -
35°C color optical density (-) ([3]; absorption band at 474 nm): 1.14 -
35°C color optical density (-) ([3]; absorption band at 567 nm): 0.57 -
A35/A23 *100 [4, 6]: 69%
A35/A23 *100 [4, 7]: 68%
A35/A23 *100 (%) [4, 12]: 69%
A35/A23 *100 (%) [4, 13]: 68%
A35/A23 *100 (%) ([4]; cured product by kneading method, 1 mm): 70%
A35/A23 *100 ([4]; photochromic cured product, thickness 1 mm (kneading method)): 70%
Temperature change rate (%) [4]: 69%
A35/A23 *100 ([4]; photochromic laminate prepared by coating method): 69%
Residual rate [5, 6]: 70%
Residual rate [5, 7]: 76%
Residual rate (%) [5, 12]: 70%
Residual rate (%) [5, 13]: 76%
Residual rate (%) ([5]; cured product by kneading method, 1 mm, absorption peak at 476 nm): 60%
Residual rate (%) ([5]; cured product by kneading method, 1 mm, absorption peak at 573 nm): 65%
Residual rate [5, 8]: 60%
Residual rate [5, 9]: 65%
Residual rate (%) ([5]; photochromic laminate by coating method, absorption band at 474 nm): 53%
Residual rate (%) ([5]; photochromic laminate by coating method, absorption band at 567 nm): 57%
Residual rate [5, 10]: 53%
Residual rate [5, 11]: 57%
SMILES: COc1ccc(C2(c3ccc(OC)cc3)C=Cc3c4c(c5cc(N6CCOCC6)c(OC)cc5c3O2)-c2ccccc2C4(C)C)cc1 [Formula (A), reference compound]

Maximum absorption wavelength (nm) ([1]; photochromic laminate by coating method, 40 µm photochromic layer on thiourethane lens, 0.25 mmol compound per 100 g monomers, absorption band at 463 nm): 463 nm
Maximum absorption wavelength (nm) ([1]; photochromic laminate by coating method, 40 µm photochromic layer on thiourethane lens, 0.25 mmol compound per 100 g monomers, absorption band at 573 nm): 573 nm
23°C color optical density (-) ([2]; absorption band at 463 nm): 1.30 -
23°C color optical density (-) ([2]; absorption band at 573 nm): 0.90 -
35°C color optical density (-) ([3]; absorption band at 463 nm): 0.88 -
35°C color optical density (-) ([3]; absorption band at 573 nm): 0.62 -
Temperature change rate (%) [4]: 68%
Residual rate (%) [5, 14]: 68%
SMILES: CCCCOc1ccc(C2(c3ccc(OCCCC)cc3)C=Cc3c4c(c5cc(NC(=O)c6ccccc6)c(OC)cc5c3O2)-c2ccccc2C4(C)C)cc1 [Formula (B), reference compound]

Maximum absorption wavelength (nm) ([1]; photochromic laminate by coating method, 40 µm photochromic layer on thiourethane lens, 0.25 mmol compound per 100 g monomers, absorption band at 469 nm): 469 nm
Maximum absorption wavelength (nm) ([1]; photochromic laminate by coating method, 40 µm photochromic layer on thiourethane lens, 0.25 mmol compound per 100 g monomers, absorption band at 570 nm): 570 nm
23°C color optical density (-) ([2]; absorption band at 469 nm): 1.20 -
23°C color optical density (-) ([2]; absorption band at 570 nm): 0.77 -
35°C color optical density (-) ([3]; absorption band at 469 nm): 0.78 -
35°C color optical density (-) ([3]; absorption band at 570 nm): 0.50 -
Temperature change rate (%) [4]: 65%
Residual rate (%) [5, 14]: 73%
SMILES: COc1ccc(C2(c3ccc(OC)cc3)C=Cc3c4c(c5cc(Sc6c(C)cccc6C)c(OC)cc5c3O2)-c2ccccc2C4(C)C)cc1 [Formula (C), reference compound]

Maximum absorption wavelength (nm) ([1]; photochromic laminate by coating method, 40 µm photochromic layer on thiourethane lens, 0.25 mmol compound per 100 g monomers, absorption band at 449 nm): 449 nm
Maximum absorption wavelength (nm) ([1]; photochromic laminate by coating method, 40 µm photochromic layer on thiourethane lens, 0.25 mmol compound per 100 g monomers, absorption band at 569 nm): 569 nm
Maximum absorption wavelength [1, 15]: 449 nm
Maximum absorption wavelength [1, 16]: 569 nm
23°C color optical density (-) ([2]; absorption band at 449 nm): 0.69 -
23°C color optical density (-) ([2]; absorption band at 569 nm): 0.87 -
35°C color optical density (-) ([3]; absorption band at 449 nm): 0.44 -
35°C color optical density (-) ([3]; absorption band at 569 nm): 0.55 -
Temperature change rate (%) [4]: 63%
A35/A23 *100 [4, 15]: 64%
A35/A23 *100 [4, 16]: 63%
Residual rate (%) ([5]; photochromic laminate by coating method, absorption band at 449 nm): 74%
Residual rate (%) ([5]; photochromic laminate by coating method, absorption band at 569 nm): 73%
Residual rate [5, 15]: 74%
Residual rate [5, 16]: 73%
SMILES: COc1ccc(C2(c3ccc(OC)cc3)C=Cc3c4c(c5ccc(OC)cc5c3O2)-c2ccccc2C4(C)C)cc1 [Formula (D), reference compound]
